How the values were obtained:
Assay in all cases: relative viability (nuclei count vs DMSO), 5 days (fraction); higher = more cells survive
[1] = tested on: A-427
Method in brief: (§1)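 Lung cancer cell lines, seeded in 1536-well plates, were treated the following day by pin tool with a single drug or with five library-drug doses (not always all listed) in √10 steps on top of a fixed anchor-drug dose. Cells were fixed and nuclei stained in one step after 5 days, and nuclei were counted. Relative viability is the nuclei count for treated wells divided by that for vehicle wells, reported as medians of duplicate plates.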

[2] = tested on: COR-L 105
Method in brief: as §1

[3] = tested on: H3255
Method in brief: as §1

[4] = tested on: HCC-44
Method in brief: as §1

[5] = tested on: HCC-827
Method in brief: as §1

[6] = tested on: LCLC-103H
Method in brief: as §1

[7] = tested on: LOU-NH91
Method in brief: as §1

[8] = tested on: LXF-289
Method in brief: as §1

[9] = tested on: NCI-H1792
Method in brief: as §1

[10] = tested on: NCI-H1793
Method in brief: as §1

[11] = tested on: NCI-H1915
Method in brief: as §1

[12] = tested on: NCI-H1944
Method in brief: as §1

[13] = tested on: NCI-H1975
Method in brief: as §1

[14] = tested on: NCI-H1993
Method in brief: as §1

[15] = tested on: NCI-H2023
Method in brief: as §1

[16] = tested on: NCI-H2087
Method in brief: as §1

[17] = tested on: NCI-H2170
Method in brief: as §1

[18] = tested on: NCI-H358
Method in brief: as §1

[19] = tested on: NCI-H520
Method in brief: as §1

[20] = tested on: NCI-H522
Method in brief: as §1

[21] = tested on: SK-MES-1
Method in brief: as §1

[22] = tested on: SW 1573
Method in brief: as §1

[23] = tested on: SW 900
Method in brief: as §1

Cc1cn(-c2cc(NC(=O)c3ccc(C)c(Nc4nccc(-c5cccnc5)n4)c3)cc(C(F)(F)F)c2)cn1 [Nilotinib] + COc1cccc2cc(-c3nc([C@H]4CC[C@H](C(=O)O)CC4)n4ncnc(N)c34)[nH]c12 [OSI-027] (partner 0.5 µM)
relative viability ([1]; first compound 0.001 µM): 0.369 | relative viability ([1]; first compound 0.003162 µM): 0.456 | relative viability ([1]; first compound 0.01 µM): 0.44 | relative viability ([1]; first compound 0.03162 µM): 0.297 | relative viability ([1]; first compound 0.1 µM): 0.154 | relative viability ([2]; first compound 0.001 µM): 0.831 | relative viability ([2]; first compound 0.003162 µM): 0.683 | relative viability ([2]; first compound 0.01 µM): 0.741 | relative viability ([2]; first compound 0.03162 µM): 0.577 | relative viability ([2]; first compound 0.1 µM): 0.586 | relative viability ([3]; first compound 0.001 µM): 0.547 | relative viability ([3]; first compound 0.003162 µM): 0.566 | relative viability ([3]; first compound 0.03162 µM): 0.501 | relative viability ([3]; first compound 0.1 µM): 0.621 | relative viability ([4]; first compound 0.001 µM): 0.498 | relative viability ([4]; first compound 0.003162 µM): 0.391 | relative viability ([4]; first compound 0.01 µM): 0.43 | relative viability ([4]; first compound 0.03162 µM): 0.505 | relative viability ([4]; first compound 0.1 µM): 0.382 | relative viability ([5]; first compound 0.003162 µM): 0.822 | relative viability ([5]; first compound 0.01 µM): 0.85 | relative viability ([5]; first compound 0.03162 µM): 0.603 | relative viability ([6]; first compound 0.001 µM): 0.406 | relative viability ([6]; first compound 0.003162 µM): 0.58 | relative viability ([6]; first compound 0.01 µM): 0.508 | relative viability ([6]; first compound 0.03162 µM): 0.432 | relative viability ([6]; first compound 0.1 µM): 0.407 | relative viability ([7]; first compound 0.001 µM): 0.687 | relative viability ([7]; first compound 0.003162 µM): 0.728 | relative viability ([7]; first compound 0.01 µM): 0.736 | relative viability ([7]; first compound 0.03162 µM): 0.67 | relative viability ([7]; first compound 0.1 µM): 0.727 | relative viability ([8]; first compound 0.001 µM): 0.807 | relative viability ([8]; first compound 0.003162 µM): 0.965 | relative viability ([8]; first compound 0.01 µM): 0.94 | relative viability ([8]; first compound 0.03162 µM): 0.826 | relative viability ([8]; first compound 0.1 µM): 0.532 | relative viability ([9]; first compound 0.001 µM): 0.503 | relative viability ([9]; first compound 0.003162 µM): 0.473 | relative viability ([9]; first compound 0.01 µM): 0.667 | relative viability ([9]; first compound 0.1 µM): 0.555 | relative viability ([10]; first compound 0.001 µM): 0.269 | relative viability ([10]; first compound 0.003162 µM): 0.261 | relative viability ([10]; first compound 0.01 µM): 0.223 | relative viability ([10]; first compound 0.03162 µM): 0.188 | relative viability ([10]; first compound 0.1 µM): 0.173 | relative viability ([11]; first compound 0.001 µM): 0.552 | relative viability ([11]; first compound 0.003162 µM): 0.659 | relative viability ([11]; first compound 0.01 µM): 0.61 | relative viability ([11]; first compound 0.03162 µM): 0.567 | relative viability ([11]; first compound 0.1 µM): 0.338 | relative viability ([12]; first compound 0.001 µM): 0.418 | relative viability ([12]; first compound 0.003162 µM): 0.407 | relative viability ([12]; first compound 0.01 µM): 0.367 | relative viability ([12]; first compound 0.03162 µM): 0.324 | relative viability ([13]; first compound 0.001 µM): 0.598 | relative viability ([13]; first compound 0.003162 µM): 0.53 | relative viability ([13]; first compound 0.01 µM): 0.149 | relative viability ([13]; first compound 0.03162 µM): 0.409 | relative viability ([13]; first compound 0.1 µM): 0.32 | relative viability ([14]; first compound 0.001 µM): 0.547 | relative viability ([14]; first compound 0.003162 µM): 0.551 | relative viability ([14]; first compound 0.01 µM): 0.536 | relative viability ([14]; first compound 0.03162 µM): 0.487 | relative viability ([14]; first compound 0.1 µM): 0.562 | relative viability ([15]; first compound 0.001 µM): 0.303 | relative viability ([15]; first compound 0.003162 µM): 0.3 | relative viability ([15]; first compound 0.01 µM): 0.313 | relative viability ([15]; first compound 0.03162 µM): 0.277 | relative viability ([15]; first compound 0.1 µM): 0.195 | relative viability ([16]; first compound 0.001 µM): 0.477 | relative viability ([16]; first compound 0.003162 µM): 0.557 | relative viability ([16]; first compound 0.01 µM): 0.499 | relative viability ([16]; first compound 0.03162 µM): 0.221 | relative viability ([16]; first compound 0.1 µM): 0.239 | relative viability ([17]; first compound 0.001 µM): 0.662 | relative viability ([17]; first compound 0.003162 µM): 0.589 | relative viability ([17]; first compound 0.01 µM): 0.832 | relative viability ([17]; first compound 0.03162 µM): 0.828 | relative viability ([17]; first compound 0.1 µM): 0.563 | relative viability ([18]; first compound 0.001 µM): 0.708 | relative viability ([18]; first compound 0.003162 µM): 1.09 | relative viability ([18]; first compound 0.01 µM): 0.655 | relative viability ([18]; first compound 0.03162 µM): 0.666 | relative viability ([18]; first compound 0.1 µM): 0.252 | relative viability ([19]; first compound 0.001 µM): 0.269 | relative viability ([19]; first compound 0.003162 µM): 0.279 | relative viability ([19]; first compound 0.01 µM): 0.325 | relative viability ([19]; first compound 0.03162 µM): 0.281 | relative viability ([19]; first compound 0.1 µM): 0.276 | relative viability ([20]; first compound 0.001 µM): 0.67 | relative viability ([20]; first compound 0.003162 µM): 0.648 | relative viability ([20]; first compound 0.01 µM): 0.754 | relative viability ([20]; first compound 0.03162 µM): 0.665 | relative viability ([20]; first compound 0.1 µM): 0.61 | relative viability ([21]; first compound 0.001 µM): 0.474 | relative viability ([21]; first compound 0.003162 µM): 0.544 | relative viability ([21]; first compound 0.01 µM): 0.662 | relative viability ([21]; first compound 0.03162 µM): 0.342 | relative viability ([21]; first compound 0.1 µM): 0.327 | relative viability ([22]; first compound 0.001 µM): 0.566 | relative viability ([22]; first compound 0.003162 µM): 0.751 | relative viability ([22]; first compound 0.01 µM): 0.72 | relative viability ([22]; first compound 0.03162 µM): 0.276 | relative viability ([22]; first compound 0.1 µM): 0.155 | relative viability ([23]; first compound 0.001 µM): 0.46 | relative viability ([23]; first compound 0.003162 µM): 0.492 | relative viability ([23]; first compound 0.01 µM): 0.595 | relative viability ([23]; first compound 0.03162 µM): 0.354 | relative viability ([23]; first compound 0.1 µM): 0.465
